{
  "source": "patent US20200207782A1",
  "about": "“CHEMICALLY ACTIVATED WATER-SOLUBLE PRODRUG” (SUMITOMO DAINIPPON PHARMA CO., LTD, priority 2017, published 2020)",
  "key": {"[1]": {"assay": "Evaluation of conversion rate to active form in human plasma", "type": "in vitro ADME", "details": "for Measurement value % of test compound (ratio of decrease): 37° C., 10 umol/L", "protocol": "(§1) The ratio of decrease of a test compound and the conversion ratio to a corresponding active form (2-acetylthieno[3,2-f][1]benzofuran-4,8-dione) in human plasma and CD1 mouse plasma were measured for Example 1.\n(§2) The test compounds were incubated at 37° C. at a concentration of 10 umol/L in human plasma (cat. no. 12250210, Cosmo Bio) and CD1 mouse plasma (cat. no. AP3054, KAC) and retrieved for a given time (0, 5, 10, 30, 60, and 120 minutes) and deproteinized, then analyzed by LC-MS. Acetonitrile comprising each of 10% quantity of 1 mol/L hydrochloric acid, 1% quantity of 46% citric acid, and phenytoin as an internal standard was used for deproteinization.\n(§3) LC-MS measurement conditions were the following.\n(§4) The yield of the Examples compounds and active form 2-acetylthieno[3,2-f][1]benzofuran-4,8-dione is calculated with each of the peak area of the Example compounds at 0 minutes and the peak area upon dissolution of 2-acetylthieno[3,2-f][1]benzofuran-4,8-dione at 100 umol/L as 100%. The yield is denoted in terms of %.\n(§5) In the same manner as Example 1, the conversion ratio to an active form was measured for each of the various test compounds in human plasma and CD1 mouse plasma, with incubation time as 120 minutes. It was confirmed that the series of compounds of the invention was converted to an active form with a small interspecies difference in human plasma and CD1 mouse plasma.\n(§6) The yield of the active forms is calculated with the each peak area upon dissolution of the generated active form at 100 umol/L as 100%. The yield is denoted in terms of %."}, "[2]": {"assay": "Solution stability test (residual ratio and generation of active form in buffers of pH 2.0 to 9.0)", "type": "physicochemical", "design": "Rate of generation of active form after 24 hours in buffer with pH of 7.4: tested at 25 µM", "details": "for Residual ratio: 25 umol/L", "outline": "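Compounds at 25 umol/L incubated at 25 °C in 50 mmol/L buffers: glycine (pH 2.0, 9.0), citrate (pH 3.0, 5.0), phosphate (pH 7.4). HPLC at 0, 3, 6, 9, 12 and 24 h. Residual % relative to 0-time peak area; active-form yield relative to a 100 umol/L active-form reference peak.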"}, "[3]": {"assay": "physchem", "details": "pH 2, aqueous buffer, thermodynamic from solid", "method": "The solubility of the water-soluble prodrugs described in the Examples and the Reference Examples was measured. […] The filtrate was measured by HPLC."}, "[4]": {"assay": "Evaluation of conversion rate to active form in CD1 mouse plasma", "type": "in vitro ADME", "details": "CD1 mouse plasma; for Test compound remaining (% of 0 min peak area): 37° C., 10 umol/L", "protocol": "as §1, §2, §3, §4, §5, §6"}, "[5]": {"assay": "Pharmacokinetics test, plasma concentration after intravenous administration", "type": "in vivo, CD1 (ICR) mice", "details": "mice", "protocol": "The concentration of the active form (2-acetylthieno[3,2-f][1]benzofuran-4,8-dione) in plasma was measured for the water-soluble prodrug described in Example 1. The animal species, dosing method, preparation method of a standard solution, and the plasma concentration measurement method are the following.\nAnimals: 7-week old male CD1 (ICR) mice were used as the experimental animals.\nDosing method: the test sample was weighed and then dissolved in a 50 mmol/L glycine buffered saline (pH 2.0) as the administered solution. The body weight of mice was measured, and the prepared solution was intravenously administered.\nBlood collection method: heparin was added to a blood collection tube, and blood was collected from mice. 1% quantity of 46% citric acid was added to the obtained blood, which was centrifuged to give the plasma. 10% quantity of 1 mol/L HCl was added to the collected plasma as the plasma sample. 10% quantity of 1 mol/L HCl added to blank plasma was used as the blank sample. […]\nPlasma concentration measurement: 100 ug/mL of standard solution was diluted with an acetonitrile solution to prepare a calibration curve sample with a concentration of interest. […] 180 uL of internal standard containing acetonitrile (containing 1% quantity of 10 mol/L HCl) was added to each of the plasma calibration curve sample and sample for plasma analysis. […]"}},
  "note": "Counter-ions that a name gives are not always drawn.",
  "data": [
    {"smiles": "CC(=O)c1cc2c(OC(=O)NCCNCC(=O)O)c3ccsc3c(OC(=O)NCCNCC(=O)O)c2o1", "note": "[Example 1, 2,2′-[(2-Acetylthieno[3,2-f][1]benzofuran-4,8-diyl)bis(oxycarbonyliminoethane-2,1-diylimino)]diacetic acid dihydrochloride]", "values": [
      {"measurement": "Degradation in plasma (in words)", "setting": "[1]; human plasma", "value": "quickly progressed"},
      {"measurement": "Interspecies difference of conversion to active form (in words)", "setting": "[1]; human plasma versus CD1 mouse plasma", "value": "interspecies difference was small"},
      {"measurement": "Measurement value % of test compound (ratio of decrease)", "setting": "[1]; human plasma, 0 minutes", "value": 100, "unit": "%"},
      {"measurement": "Measurement value % of test compound (ratio of decrease)", "setting": "[1]; human plasma, 5 minutes", "value": 0.0, "unit": "%"},
      {"measurement": "Measurement value % of test compound (ratio of decrease)", "setting": "[1]; human plasma, 10 minutes", "value": 0.0, "unit": "%"},
      {"measurement": "Measurement value % of test compound (ratio of decrease)", "setting": "[1]; human plasma, 30 minutes", "value": 0.0, "unit": "%"},
      {"measurement": "Measurement value % of test compound (ratio of decrease)", "setting": "[1]; human plasma, 60 minutes", "value": 0.0, "unit": "%"},
      {"measurement": "Measurement value % of test compound (ratio of decrease)", "setting": "[1]; human plasma, 120 minutes", "value": 0.0, "unit": "%"},
      {"measurement": "Residual ratio", "setting": "[2]; pH2.0 buffer, 25° C., 0 hr", "value": 100, "unit": "%"},
      {"measurement": "Residual ratio", "setting": "[2]; pH2.0 buffer, 25° C., 3 hr", "value": 100, "unit": "%"},
      {"measurement": "Residual ratio", "setting": "[2]; pH2.0 buffer, 25° C., 6 hr", "value": 103, "unit": "%"},
      {"measurement": "Residual ratio", "setting": "[2]; pH2.0 buffer, 25° C., 9 hr", "value": 102, "unit": "%"},
      {"measurement": "Residual ratio", "setting": "[2]; pH2.0 buffer, 25° C., 12 hr", "value": 102, "unit": "%"},
      {"measurement": "Residual ratio", "setting": "[2]; pH2.0 buffer, 25° C., 24 hr", "value": 98.6, "unit": "%"},
      {"measurement": "Degradation behaviour in buffers (in words)", "setting": "[2]; pH 2.0 to 9.0", "value": "pH dependent and chemical degradation progressed"},
      {"measurement": "Residual ratio", "setting": "[2]; pH3.0 buffer, 25° C., 0 hr", "value": 99.9, "unit": "%"},
      {"measurement": "Residual ratio", "setting": "[2]; pH3.0 buffer, 25° C., 3 hr", "value": 97.6, "unit": "%"},
      {"measurement": "Residual ratio", "setting": "[2]; pH3.0 buffer, 25° C., 6 hr", "value": 95.3, "unit": "%"},
      {"measurement": "Residual ratio", "setting": "[2]; pH3.0 buffer, 25° C., 9 hr", "value": 95.6, "unit": "%"},
      {"measurement": "Residual ratio", "setting": "[2]; pH3.0 buffer, 25° C., 12 hr", "value": 90.9, "unit": "%"},
      {"measurement": "Residual ratio", "setting": "[2]; pH3.0 buffer, 25° C., 24 hr", "value": 86.9, "unit": "%"},
      {"measurement": "Residual ratio", "setting": "[2]; pH5.0 buffer, 25° C., 0 hr", "value": 85.1, "unit": "%"},
      {"measurement": "Residual ratio", "setting": "[2]; pH5.0 buffer, 25° C., 3 hr", "value": 6.6, "unit": "%"},
      {"measurement": "Residual ratio", "setting": "[2]; pH5.0 buffer, 25° C., 6 hr", "value": 3.9, "unit": "%"},
      {"measurement": "Residual ratio", "setting": "[2]; pH5.0 buffer, 25° C., 9 hr, dihydrochloride", "value": 0, "unit": "%"},
      {"measurement": "Residual ratio", "setting": "[2]; pH5.0 buffer, 25° C., 12 hr", "value": 0.0, "unit": "%"},
      {"measurement": "Residual ratio", "setting": "[2]; pH5.0 buffer, 25° C., 24 hr", "value": 0.0, "unit": "%"},
      {"measurement": "Residual ratio", "setting": "[2]; pH7.4 buffer, 25° C., 0 hr, dihydrochloride", "value": 0, "unit": "%"},
      {"measurement": "Residual ratio", "setting": "[2]; pH7.4 buffer, 25° C., 3 hr", "value": 0.0, "unit": "%"},
      {"measurement": "Residual ratio", "setting": "[2]; pH7.4 buffer, 25° C., 6 hr", "value": 0.0, "unit": "%"},
      {"measurement": "Residual ratio", "setting": "[2]; pH7.4 buffer, 25° C., 9 hr", "value": 0.0, "unit": "%"},
      {"measurement": "Residual ratio", "setting": "[2]; pH7.4 buffer, 25° C., 12 hr", "value": 0.0, "unit": "%"},
      {"measurement": "Residual ratio", "setting": "[2]; pH7.4 buffer, 25° C., 24 hr", "value": 0.0, "unit": "%"},
      {"measurement": "Rate of generation of active form after 24 hours in buffer with pH of 7.4", "setting": "[2]; pH 7.4 buffer, 24 hours, 25° C.", "value": 92, "unit": "%"},
      {"measurement": "Residual ratio", "setting": "[2]; pH9.0 buffer, 25° C., 0 hr, dihydrochloride", "value": 0, "unit": "%"},
      {"measurement": "Residual ratio", "setting": "[2]; pH9.0 buffer, 25° C., 3 hr", "value": 0.0, "unit": "%"},
      {"measurement": "Residual ratio", "setting": "[2]; pH9.0 buffer, 25° C., 6 hr", "value": 0.0, "unit": "%"},
      {"measurement": "Residual ratio", "setting": "[2]; pH9.0 buffer, 25° C., 9 hr", "value": 0.0, "unit": "%"},
      {"measurement": "Residual ratio", "setting": "[2]; pH9.0 buffer, 25° C., 12 hr", "value": 0.0, "unit": "%"},
      {"measurement": "Residual ratio", "setting": "[2]; pH9.0 buffer, 25° C., 24 hr", "value": 0.0, "unit": "%"},
      {"measurement": "Stability in solution (in words)", "setting": "[2]; pH of 2.0, 25° C.", "value": "very stable"},
      {"measurement": "Stability in solution (in words)", "setting": "[2]; pH of 3.0, 25° C.", "value": "sufficiently stable"},
      {"measurement": "solubility at 24 h", "setting": "[3]", "value": "> 10000", "unit": "µg/mL"},
      {"measurement": "Degradation in plasma (in words)", "setting": "[4]", "value": "quickly progressed"},
      {"measurement": "Test compound remaining (% of 0 min peak area)", "setting": "[4]; 0 minutes", "value": 100, "unit": "%"},
      {"measurement": "Test compound remaining (% of 0 min peak area)", "setting": "[4]; 5 minutes", "value": 0.11, "unit": "%"},
      {"measurement": "Test compound remaining (% of 0 min peak area)", "setting": "[4]; 10 minutes", "value": 0.01, "unit": "%"},
      {"measurement": "Test compound remaining (% of 0 min peak area)", "setting": "[4]; 30 minutes", "value": 0.01, "unit": "%"},
      {"measurement": "Test compound remaining (% of 0 min peak area)", "setting": "[4]; 60 minutes", "value": 0.01, "unit": "%"},
      {"measurement": "Test compound remaining (% of 0 min peak area)", "setting": "[4]; 120 minutes", "value": 0.08, "unit": "%"},
      {"measurement": "Generation of active form after intravenous administration (in words)", "setting": "[5]", "value": "quickly generated"}
    ]}
  ]
}
